In the supplement of paper PMC10733146:

Tests used:
Assay in all cases: viability relative to DMSO control (fraction); higher = less drug effect (more viable cells)
Settings in all cases: 48 h
[1] = test system: primary ALL patient cells (S048)
Method in brief: (§1)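 Cells were incubated for 48 h at 37 °C and 5% CO2 in RPMI-1640 with penicillin/streptomycin, L-glutamine and human serum, at 4 × 10^4 cells per well in 384-well plates with compounds pre-plated at five concentrations, one well each. These were primary mononuclear tumour cells, fresh or cryopreserved, Ficoll-isolated from blood or bone marrow or obtained from processed lymph node. Viability values are CellTiter-Glo luminescence relative to the median of 16 inner DMSO wells.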

[2] = test system: primary AML patient cells (S002)
Method in brief: as §1

[3] = test system: primary AML patient cells (S072)
Method in brief: as §1

[4] = test system: primary AML patient cells (S085)
Method in brief: as §1

[5] = test system: primary MCL patient cells (S068)
Method in brief: as §1

[6] = test system: primary MCL patient cells (S053)
Method in brief: as §1

[7] = test system: primary AML patient cells (S019)
Method in brief: as §1

[8] = test system: primary CLL patient cells (S031)
Method in brief: as §1

[9] = test system: primary AML patient cells (S089)
Method in brief: as §1

[10] = test system: primary AML patient cells (S079)
Method in brief: as §1

[11] = test system: primary CLL patient cells (S043)
Method in brief: as §1

[12] = test system: primary AML patient cells (S017)
Method in brief: as §1

[13] = test system: primary AML patient cells (S012)
Method in brief: as §1

[14] = test system: primary AML patient cells (S091)
Method in brief: as §1

[15] = test system: primary BL patient cells (S005)
Method in brief: as §1

[16] = test system: primary AML patient cells (S056)
Method in brief: as §1

[17] = test system: primary AML patient cells (S071)
Method in brief: as §1

[18] = test system: primary AML patient cells (S037)
Method in brief: as §1

[19] = test system: primary FL patient cells (S022)
Method in brief: as §1

[20] = test system: primary AML patient cells (S025)
Method in brief: as §1

For `C/C=C1\NC(=O)[C@H]2CSSCC/C=C/[C@H](CC(=O)N[C@H](C(C)C)C(=O)N2)OC(=O)[C@H](C(C)C)NC1=O` [Romidepsin], the viability ([1]; 0.00032 µM) was 0.791, the viability ([1]; 0.0016 µM) was 0.184 and the viability ([1]; 0.008 µM) was 0.0722. For the same molecule, the viability ([1]; 0.04 µM) was 0.0497, the viability ([1]; 0.2 µM) was 0.0502 and the viability ([2]; 0.00032 µM) was 1.12. For the same molecule, the viability ([2]; 0.0016 µM) was 0.73, the viability ([2]; 0.008 µM) was 0.283 and the viability ([2]; 0.04 µM) was 0.265. It also gave a viability ([2]; 0.2 µM) of 0.287, a viability ([3]; 0.00032 µM) of 0.97 and a viability ([3]; 0.0016 µM) of 0.671. It also gave a viability ([3]; 0.008 µM) of 0.243, a viability ([3]; 0.04 µM) of 0.192 and a viability ([3]; 0.2 µM) of 0.187. For the same molecule, the viability ([4]; 0.00032 µM) was 1.04, the viability ([4]; 0.0016 µM) was 0.817 and the viability ([4]; 0.008 µM) was 0.103. For the same molecule, the viability ([4]; 0.04 µM) was 0.0584, the viability ([4]; 0.2 µM) was 0.0681 and the viability ([5]; 0.00032 µM) was 0.904. For the same molecule, the viability ([5]; 0.0016 µM) was 0.298, the viability ([5]; 0.008 µM) was 0.118 and the viability ([5]; 0.04 µM) was 0.0914. It also gave a viability ([5]; 0.2 µM) of 0.0996, a viability ([6]; 0.00032 µM) of 0.951 and a viability ([6]; 0.0016 µM) of 0.191. It also gave a viability ([6]; 0.008 µM) of 0.0849, a viability ([6]; 0.04 µM) of 0.0845 and a viability ([6]; 0.2 µM) of 0.0907. It also gave a viability ([7]; 0.00032 µM) of 1, a viability ([7]; 0.0016 µM) of 0.996 and a viability ([7]; 0.008 µM) of 0.52. For the same molecule, the viability ([7]; 0.04 µM) was 0.417, the viability ([7]; 0.2 µM) was 0.434 and the viability ([8]; 0.00032 µM) was 1.07. For the same molecule, the viability ([8]; 0.0016 µM) was 0.717, the viability ([8]; 0.008 µM) was 0.0898 and the viability ([8]; 0.04 µM) was 0.061. For the same molecule, the viability ([8]; 0.2 µM) was 0.0838, the viability ([9]; 0.00032 µM) was 0.932 and the viability ([9]; 0.0016 µM) was 0.979. It also gave a viability ([9]; 0.008 µM) of 0.302, a viability ([9]; 0.04 µM) of 0.0361 and a viability ([9]; 0.2 µM) of 0.0536. For the same molecule, the viability ([10]; 0.00032 µM) was 0.978, the viability ([10]; 0.0016 µM) was 0.85 and the viability ([10]; 0.008 µM) was 0.269. The viability ([10]; 0.04 µM) was 0.31, the viability ([10]; 0.2 µM) was 0.304 and the viability ([11]; 0.00032 µM) was 0.92. It also gave a viability ([11]; 0.0016 µM) of 0.83, a viability ([11]; 0.008 µM) of 0.369 and a viability ([11]; 0.04 µM) of 0.0933. It also gave a viability ([11]; 0.2 µM) of 0.084, a viability ([12]; 0.00032 µM) of 1.02 and a viability ([12]; 0.0016 µM) of 0.866. For the same molecule, the viability ([12]; 0.008 µM) was 0.29, the viability ([12]; 0.04 µM) was 0.302 and the viability ([12]; 0.2 µM) was 0.332. The viability ([13]; 0.00032 µM) was 1.1, the viability ([13]; 0.0016 µM) was 1.01 and the viability ([13]; 0.008 µM) was 0.722. The viability ([13]; 0.04 µM) was 0.0806, the viability ([13]; 0.2 µM) was 0.0665 and the viability ([14]; 0.00032 µM) was 0.803. For the same molecule, the viability ([14]; 0.0016 µM) was 0.715, the viability ([14]; 0.008 µM) was 0.169 and the viability ([14]; 0.04 µM) was 0.116. It also gave a viability ([14]; 0.2 µM) of 0.117, a viability ([15]; 0.00032 µM) of 1 and a viability ([15]; 0.0016 µM) of 0.948. The viability ([15]; 0.008 µM) was 0.63, the viability ([15]; 0.04 µM) was 0.564 and the viability ([15]; 0.2 µM) was 0.538. It also gave a viability ([16]; 0.00032 µM) of 0.924, a viability ([16]; 0.0016 µM) of 0.89 and a viability ([16]; 0.008 µM) of 0.156. It also gave a viability ([16]; 0.04 µM) of 0.0512, a viability ([16]; 0.2 µM) of 0.0574 and a viability ([17]; 0.00032 µM) of 0.887. It also gave a viability ([17]; 0.0016 µM) of 0.626, a viability ([17]; 0.008 µM) of 0.209 and a viability ([17]; 0.04 µM) of 0.187. It also gave a viability ([17]; 0.2 µM) of 0.182, a viability ([18]; 0.00032 µM) of 1.06 and a viability ([18]; 0.0016 µM) of 0.911. The viability ([18]; 0.008 µM) was 0.554, the viability ([18]; 0.04 µM) was 0.516 and the viability ([18]; 0.2 µM) was 0.508. It also gave a viability ([19]; 0.00032 µM) of 0.968, a viability ([19]; 0.0016 µM) of 0.84 and a viability ([19]; 0.008 µM) of 0.543. For the same molecule, the viability ([19]; 0.04 µM) was 0.263, the viability ([19]; 0.2 µM) was 0.206 and the viability ([20]; 0.00032 µM) was 0.889. The viability ([20]; 0.0016 µM) was 0.812, the viability ([20]; 0.008 µM) was 0.299 and the viability ([20]; 0.04 µM) was 0.381. The viability ([20]; 0.2 µM) was 0.441.
`O=C(O)CSc1cc(NS(=O)(=O)c2ccc(Br)cc2)c2ccccc2c1O` [UMI-77] gave a viability ([1]; 0.024 µM) of 0.913, a viability ([1]; 0.12 µM) of 0.88 and a viability ([1]; 0.6 µM) of 0.742. For the same molecule, the viability ([1]; 3 µM) was 0.582, the viability ([1]; 15 µM) was 0.128 and the viability ([2]; 0.024 µM) was 0.893. For the same molecule, the viability ([2]; 0.12 µM) was 0.926, the viability ([2]; 0.6 µM) was 0.948 and the viability ([2]; 3 µM) was 0.937. The viability ([2]; 15 µM) was 1.03, the viability ([3]; 0.024 µM) was 0.956 and the viability ([3]; 0.12 µM) was 0.949. For the same molecule, the viability ([3]; 0.6 µM) was 0.94, the viability ([3]; 3 µM) was 0.994 and the viability ([3]; 15 µM) was 0.777. The viability ([4]; 0.024 µM) was 0.887, the viability ([4]; 0.12 µM) was 1.07 and the viability ([4]; 0.6 µM) was 0.905. For the same molecule, the viability ([4]; 3 µM) was 0.834, the viability ([4]; 15 µM) was 1.53 and the viability ([5]; 0.024 µM) was 0.957. It also gave a viability ([5]; 0.12 µM) of 0.817, a viability ([5]; 0.6 µM) of 0.767 and a viability ([5]; 3 µM) of 0.666. The viability ([5]; 15 µM) was 0.318, the viability ([6]; 0.024 µM) was 1.07 and the viability ([6]; 0.12 µM) was 0.99. The viability ([6]; 0.6 µM) was 0.818, the viability ([6]; 3 µM) was 0.873 and the viability ([6]; 15 µM) was 0.191. It also gave a viability ([7]; 0.024 µM) of 1.28, a viability ([7]; 0.12 µM) of 1.35 and a viability ([7]; 0.6 µM) of 1.17. It also gave a viability ([7]; 3 µM) of 1.24, a viability ([7]; 15 µM) of 0.831 and a viability ([8]; 0.024 µM) of 0.84. The viability ([8]; 0.12 µM) was 0.875, the viability ([8]; 0.6 µM) was 0.886 and the viability ([8]; 3 µM) was 0.878. The viability ([8]; 15 µM) was 0.73, the viability ([9]; 0.024 µM) was 0.835 and the viability ([9]; 0.12 µM) was 0.672. The viability ([9]; 0.6 µM) was 0.737, the viability ([9]; 3 µM) was 1.03 and the viability ([9]; 15 µM) was 0.998. It also gave a viability ([10]; 0.024 µM) of 0.917, a viability ([10]; 0.12 µM) of 0.932 and a viability ([10]; 0.6 µM) of 0.997. For the same molecule, the viability ([10]; 3 µM) was 0.989, the viability ([10]; 15 µM) was 0.79 and the viability ([11]; 0.024 µM) was 0.997. The viability ([11]; 0.12 µM) was 0.981, the viability ([11]; 0.6 µM) was 0.974 and the viability ([11]; 3 µM) was 0.979. The viability ([11]; 15 µM) was 0.748, the viability ([12]; 0.024 µM) was 1.01 and the viability ([12]; 0.12 µM) was 1.02. For the same molecule, the viability ([12]; 0.6 µM) was 0.983, the viability ([12]; 3 µM) was 0.99 and the viability ([12]; 15 µM) was 0.436. The viability ([13]; 0.024 µM) was 1.07, the viability ([13]; 0.12 µM) was 1.06 and the viability ([13]; 0.6 µM) was 1.09. For the same molecule, the viability ([13]; 3 µM) was 1.04, the viability ([13]; 15 µM) was 0.715 and the viability ([14]; 0.024 µM) was 1.02. The viability ([14]; 0.12 µM) was 1.03, the viability ([14]; 0.6 µM) was 1.13 and the viability ([14]; 3 µM) was 1.32. For the same molecule, the viability ([14]; 15 µM) was 0.996, the viability ([15]; 0.024 µM) was 0.92 and the viability ([15]; 0.12 µM) was 0.902. For the same molecule, the viability ([15]; 0.6 µM) was 0.783, the viability ([15]; 3 µM) was 0.812 and the viability ([15]; 15 µM) was 0.276. For the same molecule, the viability ([16]; 0.024 µM) was 0.838, the viability ([16]; 0.12 µM) was 0.998 and the viability ([16]; 0.6 µM) was 0.836. For the same molecule, the viability ([16]; 3 µM) was 0.999, the viability ([16]; 15 µM) was 0.434 and the viability ([17]; 0.024 µM) was 0.883. It also gave a viability ([17]; 0.12 µM) of 0.921, a viability ([17]; 0.6 µM) of 0.879 and a viability ([17]; 3 µM) of 0.85. For the same molecule, the viability ([17]; 15 µM) was 0.644, the viability ([18]; 0.024 µM) was 1.05 and the viability ([18]; 0.12 µM) was 1.04. It also gave a viability ([18]; 0.6 µM) of 0.985, a viability ([18]; 3 µM) of 0.978 and a viability ([18]; 15 µM) of 0.633. For the same molecule, the viability ([19]; 0.024 µM) was 0.967, the viability ([19]; 0.12 µM) was 0.981 and the viability ([19]; 0.6 µM) was 0.913. It also gave a viability ([19]; 3 µM) of 0.897, a viability ([19]; 15 µM) of 0.521 and a viability ([20]; 0.024 µM) of 1.06. For the same molecule, the viability ([20]; 0.12 µM) was 1.08, the viability ([20]; 0.6 µM) was 1.03 and the viability ([20]; 3 µM) was 1.18. It also gave a viability ([20]; 15 µM) of 0.46.
